Columns and labels:
[1] = Antagonist activity at RORgammat LBD (unknown origin)/NCoR2 (unknown origin) interaction; set-up: species or system Homo sapiens
[2] = molecular target: T1, Nuclear receptor ROR-gamma (Homo sapiens, UniProt P51449); assay: Antagonist activity at RORgammat LBD (unknown origin) LBD
T1 sequence (P51449 whole entry): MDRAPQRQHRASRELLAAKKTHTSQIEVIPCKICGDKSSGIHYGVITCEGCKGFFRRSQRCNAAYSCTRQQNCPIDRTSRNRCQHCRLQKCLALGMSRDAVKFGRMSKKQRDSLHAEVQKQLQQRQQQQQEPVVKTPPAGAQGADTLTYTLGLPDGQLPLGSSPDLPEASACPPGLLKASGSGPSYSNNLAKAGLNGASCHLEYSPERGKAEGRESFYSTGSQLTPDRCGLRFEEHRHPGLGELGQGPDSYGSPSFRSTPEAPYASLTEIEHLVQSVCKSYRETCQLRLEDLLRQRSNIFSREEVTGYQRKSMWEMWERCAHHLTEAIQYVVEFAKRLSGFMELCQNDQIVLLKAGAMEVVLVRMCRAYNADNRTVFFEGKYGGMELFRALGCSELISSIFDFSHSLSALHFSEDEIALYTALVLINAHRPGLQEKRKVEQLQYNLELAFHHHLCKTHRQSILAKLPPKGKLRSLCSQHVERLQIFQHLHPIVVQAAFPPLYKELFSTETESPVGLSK

C[C@H]1O[C@@H](O[C@H]2[C@@H](O)C[C@H](O[C@H]3[C@@H](O)C[C@H](O[C@H]4CC[C@@]5(C)[C@H](CC[C@@H]6[C@@H]5C[C@@H](O)[C@]5(C)[C@@H](C7=CC(=O)OC7)CC[C@]65O)C4)O[C@@H]3C)O[C@@H]2C)C[C@H](O)[C@@H]1O [DIGOXIN]
IC50 [1]: 3900 nM
IC50 [2]: 1800 nM

— ChEMBL document CHEMBL5331090, “Modes of action insights from the crystallographic structures of retinoic acid receptor-related orphan receptor-γt (RORγt)” (Eur J Med Chem, 2023)
